How the values were obtained:
U87-MG xenografts = assay: combination therapy of TMZ with 188Re-IDA-D-[c(RGDfK)]2: tumor volume; type: in vivo, BALB/c nu/nu nude mice; settings: TMZ 2 or 5 mgkg^−1 once a week for 14 days, n = 4
Protocol: A suspension of human glioblastoma U87-MG cells was prepared (5 × 10^6 cellsmL^−1). A total of 0.1 mL of cell suspension was injected subcutaneously into the right flank of a 6–7-week-old male BALB/c nu/nu nude mice (20–25 g, Orient Bio Inc., Seongnam, Korea). In the case of pharmacokinetic studies of ^99mTc-IDA-D-[c(RGDfK)]2, we used tumor xenograft mice whose tumor cells were inoculated in the right shoulder and performed the SPECT imaging study when tumor volume reached 68.7 ± 18.8 mm^3 at 10 days after injection of U87-MG cells. Evaluations of integrin-targeted blocking and radiotherapy treatment on the growth of U87-MG xenografts were carried out when tumor volume reached 59.4 ± 14.9 mm^3 (For authentic “cold” Re-peptide (^185/187Re-IDA-D-[c(RGDfK)]2) treatment) and 66.2 ± 15.3 mm^3 (For radiotherapy (^188Re-IDA-D-[c(RGDfK)]2) treatment) at 10 days after injection of U87-MG cells. Experiments with vehicle, negative control peptide (^188Re-IDA-D-[c(RADfK)]2) or ^188Re-IDA-D-[c(RGDfK)]2 treatments (11.1 MBq) in U87-MG xenografts were carried out when tumor volume reached 40.3 ± 14.8 mm^3 at 9 days after injection of U87-MG cells. […]
For caliper measurements, tumor length (longitudinal diameter) and tumor width (transverse diameter) were measured, and the tumor volume was calculated according to the following formula: tumor volume = (length × width^2)/2.

integrin αvβ3 = assay: anti-integrin αvβ3 immunohistochemical staining of dissected tumor tissues; type: in vivo, BALB/c nu/nu nude mice; settings: TMZ 5 mgkg^−1, after 2 weeks
Protocol: Tumor tissues were harvested on day 14 after the treatment and immediately fixed in 10% formalin solution. Frozen tissue sections (5 μm) were placed onto glass slides. The tumor sections were stained with anti-integrin αvβ3 rabbit antibody (1:1000, Millipore) at 4 °C for 16 h. The sections were then incubated with anti-rabbit secondary antibody (biotinylated) at room temperature for 1 h. The detection system (Vector Laboratories, Burlingame, CA, USA) was applied according to the manufacturer’s instructions. The nuclei were counter-stained with hematoxylin (Invitrogen, Carlsbad, CA, USA). For assessment of tumor vascularization, mouse anti-human CD31 monoclonal antibody (diluted 1:40, Dako) staining was performed on acetone-fixed cryosections using a blood vessel staining kit (ECM590, Millipore Ireland, Cork, Ireland). For another assessment of integrin αvβ3 receptors in dissected tumor tissues, anti-integrin αvβ3 (SC-7312, Santa Cruz Biotech, Santa Cruz, CA, USA) was used. Primary antibody against γH2AX (diluted 1:50, Abcam) was applied to acetone-fixed cryosections and incubated overnight. […] Images were acquired using Axioscope A1 fluorescent microscope (Carl Zeiss, Jena, Germany) or AxioCam MRc5 (Carl Zeiss, Jena, Germany) and analyzed with Axiovision software (version 4.4, Carl Zeiss Meditec, Jena, Germany). […]

Structure (SMILES): Cn1nnc2c(C(N)=O)ncn2c1=O [TMZ, Temozolomide]
- tumor size compared with saline treatment (U87-MG xenografts): significantly reduced tumor size
- integrin expression in tumor tissues (integrin αvβ3): reduced integrin expression

Source: article PMC8507696, “Effect of Peptide Receptor Radionuclide Therapy in Combination with Temozolomide against Tumor Angiogenesis in a Glioblastoma Model” (Cancers, 2021)
